ChEMBL document CHEMBL2062376, “Novel oxazolo[4,5-g]quinazolin-2(1H)-ones: dual inhibitors of EGFR and Src protein tyrosine kinases” (Eur J Med Chem, 2012)
Values belong to the molecule of their own block, whether it stands above or below them. The source made the active and inactive calls. The calls are words filed in the database; no cut-off is given here.

Experiments:
[1] = biological target: T1, Epidermal growth factor receptor (Homo sapiens, UniProt P00533)
[2] = tested on: KB; assay: Antiproliferative activity against human KB cells expressing EGFR and SRC by MTT assay; type: functional, cell-based
[3] = tested on: A498; assay: Antiproliferative activity against human A498 cells expressing EGFR and SRC by MTT assay; type: functional, cell-based
[4] = biological target: Proto-oncogene tyrosine-protein kinase Src (Homo sapiens, UniProt P12931); assay: Inhibition of SRC
[5] = biological target: T1, Epidermal growth factor receptor; assay: Inhibition of EGFR at >100 uM

Chain of Proto-oncogene tyrosine-protein kinase Src (P12931 2-536 limits assumed): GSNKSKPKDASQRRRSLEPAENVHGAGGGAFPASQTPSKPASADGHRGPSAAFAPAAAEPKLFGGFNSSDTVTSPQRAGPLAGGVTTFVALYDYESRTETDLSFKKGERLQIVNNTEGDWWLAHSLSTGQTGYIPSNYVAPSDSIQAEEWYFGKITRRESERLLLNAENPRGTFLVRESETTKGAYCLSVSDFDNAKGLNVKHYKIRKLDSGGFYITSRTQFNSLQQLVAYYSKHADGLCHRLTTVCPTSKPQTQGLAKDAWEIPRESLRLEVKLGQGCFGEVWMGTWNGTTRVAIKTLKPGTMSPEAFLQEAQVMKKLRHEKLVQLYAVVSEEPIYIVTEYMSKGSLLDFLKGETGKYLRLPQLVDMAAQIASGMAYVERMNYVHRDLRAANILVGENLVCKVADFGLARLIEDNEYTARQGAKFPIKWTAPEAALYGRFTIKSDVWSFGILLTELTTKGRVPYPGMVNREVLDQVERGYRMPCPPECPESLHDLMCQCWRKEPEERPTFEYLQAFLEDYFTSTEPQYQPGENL
T1 sequence (P00533 whole entry): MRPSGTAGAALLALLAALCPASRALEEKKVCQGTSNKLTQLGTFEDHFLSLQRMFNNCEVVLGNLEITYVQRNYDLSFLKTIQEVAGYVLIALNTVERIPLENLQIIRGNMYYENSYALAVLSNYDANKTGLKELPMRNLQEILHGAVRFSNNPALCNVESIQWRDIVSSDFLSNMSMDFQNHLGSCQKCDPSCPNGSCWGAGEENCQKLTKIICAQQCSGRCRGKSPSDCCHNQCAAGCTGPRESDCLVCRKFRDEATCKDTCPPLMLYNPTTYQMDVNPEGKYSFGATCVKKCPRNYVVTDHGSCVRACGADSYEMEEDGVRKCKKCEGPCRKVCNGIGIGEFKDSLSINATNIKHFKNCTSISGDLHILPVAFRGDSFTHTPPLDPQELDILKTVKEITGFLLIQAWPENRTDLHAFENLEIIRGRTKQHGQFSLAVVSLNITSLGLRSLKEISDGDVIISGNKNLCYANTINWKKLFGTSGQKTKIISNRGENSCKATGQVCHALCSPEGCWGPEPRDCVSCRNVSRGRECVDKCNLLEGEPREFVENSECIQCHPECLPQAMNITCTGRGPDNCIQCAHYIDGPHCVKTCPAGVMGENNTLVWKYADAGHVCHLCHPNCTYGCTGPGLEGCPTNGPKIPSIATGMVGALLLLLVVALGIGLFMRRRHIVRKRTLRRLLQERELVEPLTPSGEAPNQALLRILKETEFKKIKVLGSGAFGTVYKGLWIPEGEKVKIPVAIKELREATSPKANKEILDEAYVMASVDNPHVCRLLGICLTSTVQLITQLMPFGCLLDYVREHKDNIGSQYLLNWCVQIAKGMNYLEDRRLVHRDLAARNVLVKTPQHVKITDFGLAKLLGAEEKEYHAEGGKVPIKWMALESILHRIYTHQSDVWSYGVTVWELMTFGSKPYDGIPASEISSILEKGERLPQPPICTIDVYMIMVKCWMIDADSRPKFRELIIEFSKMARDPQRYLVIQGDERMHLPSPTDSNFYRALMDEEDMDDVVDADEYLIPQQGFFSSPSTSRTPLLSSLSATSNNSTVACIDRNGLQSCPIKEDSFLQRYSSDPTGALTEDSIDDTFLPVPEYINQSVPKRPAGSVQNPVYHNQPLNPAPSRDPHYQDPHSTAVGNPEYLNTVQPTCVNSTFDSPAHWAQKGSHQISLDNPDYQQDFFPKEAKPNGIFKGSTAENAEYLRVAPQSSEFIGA

IC50 [1]: 7.8 µM
SMILES: Cc1c(OCC(F)(F)F)ccnc1COc1ccc(Nc2ncnc3cc4oc(=O)n(CCCN5CCOCC5)c4cc23)cc1

IC50 [1]: 7.2 µM
SMILES: CN(c1ccccc1)c1ncnc2cc3oc(=O)n(CCCN4CCOCC4)c3cc12

IC50 [2]: 6 µM
IC50 [1]: 5.8 µM
IC50 [4]: 3.1 µM
SMILES: CCOC(=O)c1ccc(Nc2ncnc3cc4oc(=O)n(CCCN5CCOCC5)c4cc23)cc1
IC50 [3]: 8.8 µM

IC50 [4]: 0.073 µM
SMILES: CN(C)S(=O)(=O)c1ccc2c(c1)/C(=C/c1cc3c([nH]1)CCCC3)C(=O)N2

inhibition [5]: inactive
IC50 [4]: 66 µM
SMILES: O=c1oc2cc3ncnc(Nc4ccc(O)cc4)c3cc2n1CCCN1CCOCC1

IC50 [1]: 79 µM
SMILES: CC(C)(C)c1ccc(Nc2ncnc3cc4oc(=O)n(CCCN5CCOCC5)c4cc23)cc1

IC50 [1]: 0.57 µM
SMILES: O=c1oc2cc3ncnc(Nc4ccc(F)c(F)c4)c3cc2n1CCCN1CCOCC1

inhibition [5]: inactive
SMILES: O=C(OCc1ccc(Cl)cc1)c1ccc(Nc2ncnc3cc4oc(=O)n(CCCN5CCOCC5)c4cc23)cc1

IC50 [1]: 0.38 µM
SMILES: C#Cc1cccc(Nc2ncnc3cc4oc(=O)n(CCCN5CCOCC5)c4cc23)c1

inhibition [5]: inactive
SMILES: CN1CCN(c2ncnc3cc4oc(=O)n(CCCN5CCOCC5)c4cc23)CC1

IC50 [1]: 6.8 µM
SMILES: CC(=O)c1cccc(Nc2ncnc3cc4oc(=O)n(CCCN5CCOCC5)c4cc23)c1

IC50 [1]: 0.38 µM
SMILES: COc1ccc(Nc2ncnc3cc4oc(=O)n(CCCN5CCOCC5)c4cc23)cc1

inhibition [5]: inactive
SMILES: NS(=O)(=O)c1ccc(Nc2ncnc3cc4oc(=O)n(CCCN5CCOCC5)c4cc23)cc1

IC50 [2]: 16 µM
IC50 [1]: 0.099 µM
SMILES: Cc1c(OCC(F)(F)F)ccnc1COc1cccc(Nc2ncnc3cc4oc(=O)n(CCCN5CCOCC5)c4cc23)c1
IC50 [3]: 35.3 µM

IC50 [1]: 75 µM
SMILES: Cc1cc(C)cc(Nc2ncnc3cc4oc(=O)n(CCCN5CCOCC5)c4cc23)c1

IC50 [2]: 18.5 µM
IC50 [1]: 0.12 µM
SMILES: O=c1oc2cc3ncnc(Nc4ccc5[nH]ncc5c4)c3cc2n1CCCN1CCOCC1
IC50 [3]: 18.7 µM

IC50 [2]: 8.1 µM
IC50 [1]: 0.23 µM
SMILES: CCOC(=O)c1ccc(O)c(Nc2ncnc3cc4oc(=O)n(CCCN5CCOCC5)c4cc23)c1
IC50 [3]: 15.7 µM

IC50 [1]: 4.5 µM
SMILES: C[C@@H](Nc1ncnc2cc3oc(=O)n(CCCN4CCOCC4)c3cc12)c1ccccc1

IC50 [1]: 3 µM
SMILES: CC(C)Oc1cccc(Nc2ncnc3cc4oc(=O)n(CCCN5CCOCC5)c4cc23)c1

inhibition [5]: inactive
SMILES: CC(=O)Nc1ccc(Nc2ncnc3cc4oc(=O)n(CCCN5CCOCC5)c4cc23)cc1

IC50 [2]: 0.82 µM
IC50 [1]: 0.061 µM
SMILES: O=c1oc2cc3ncnc(Nc4ccc(OCc5ccc(Cl)cc5)c(Cl)c4)c3cc2n1CCCN1CCOCC1
IC50 [3]: 3 µM

IC50 [2]: 37.6 µM
IC50 [1]: 0.14 µM
SMILES: O=c1oc2cc3ncnc(Nc4ccc(OCc5ccccc5)cc4)c3cc2n1CCCN1CCOCC1
IC50 [3]: 14.8 µM

IC50 [1]: 1.7 µM
SMILES: O=c1oc2cc3ncnc(Nc4ccc(OCc5ccccn5)cc4)c3cc2n1CCCN1CCOCC1

IC50 [1]: 3.7 µM
SMILES: C[C@H](Nc1ncnc2cc3oc(=O)n(CCCN4CCOCC4)c3cc12)c1ccccc1

inhibition [5]: inactive
SMILES: Cc1ccccc1Nc1ncnc2cc3oc(=O)n(CCCN4CCOCC4)c3cc12

inhibition [5]: inactive
SMILES: O=c1oc2cc3ncnc(Nc4ccc(Cl)cc4)c3cc2n1CCCN1CCOCC1

IC50 [2]: 6.5 µM
IC50 [1]: 0.078 µM
SMILES: O=c1oc2cc3ncnc(Nc4ccc(F)c(Cl)c4)c3cc2n1CCCN1CCOCC1
IC50 [3]: 32 µM

IC50 [2]: 37.1 µM
IC50 [1]: 0.99 µM
SMILES: O=c1oc2cc3ncnc(Nc4ccc(OCc5ccc(Cl)cc5)cc4)c3cc2n1CCCN1CCOCC1
IC50 [3]: 7.4 µM

inhibition [5]: inactive
SMILES: COc1ccc(Nc2ncnc3cc4oc(=O)n(CCCN5CCOCC5)c4cc23)cc1OC

IC50 [1]: 65 µM
SMILES: O=c1oc2cc3ncnc(NCc4ccccc4)c3cc2n1CCCN1CCOCC1

inhibition [5]: inactive
SMILES: O=c1oc2cc3ncnc(N[C@H]4CC[C@H](O)CC4)c3cc2n1CCCN1CCOCC1

IC50 [1]: 30 µM
SMILES: O=c1oc2cc3ncnc(Nc4ccccc4O)c3cc2n1CCCN1CCOCC1

IC50 [1]: 0.067 µM
IC50 [4]: 7.5 µM
SMILES: Cc1ccc(Nc2ncnc3cc4oc(=O)n(CCCN5CCOCC5)c4cc23)cc1
